Measured values as given in ChEMBL document CHEMBL1821689, “1,6-Disubstituted indole derivatives as selective human neuronal nitric oxide synthase inhibitors” (Bioorg Med Chem Lett, 2011).
Active and inactive are the calls of the source. The rule behind the calls is not given here.

Legend:
[1] = organism: Homo sapiens; experiment: Selectivity ratio of IC50 for recombinant human eNOS to IC50 for recombinant human nNOS
[2] = biological target: Nitric oxide sythases; iNOS & nNOS (Homo sapiens) (UniProt P29475+P35228); experiment: Selectivity ratio of IC50 for recombinant human iNOS to IC50 for recombinant human nNOS
Sequence of Nitric oxide sythases; iNOS & nNOS (Homo sapiens) (P29475 whole entry, looked up): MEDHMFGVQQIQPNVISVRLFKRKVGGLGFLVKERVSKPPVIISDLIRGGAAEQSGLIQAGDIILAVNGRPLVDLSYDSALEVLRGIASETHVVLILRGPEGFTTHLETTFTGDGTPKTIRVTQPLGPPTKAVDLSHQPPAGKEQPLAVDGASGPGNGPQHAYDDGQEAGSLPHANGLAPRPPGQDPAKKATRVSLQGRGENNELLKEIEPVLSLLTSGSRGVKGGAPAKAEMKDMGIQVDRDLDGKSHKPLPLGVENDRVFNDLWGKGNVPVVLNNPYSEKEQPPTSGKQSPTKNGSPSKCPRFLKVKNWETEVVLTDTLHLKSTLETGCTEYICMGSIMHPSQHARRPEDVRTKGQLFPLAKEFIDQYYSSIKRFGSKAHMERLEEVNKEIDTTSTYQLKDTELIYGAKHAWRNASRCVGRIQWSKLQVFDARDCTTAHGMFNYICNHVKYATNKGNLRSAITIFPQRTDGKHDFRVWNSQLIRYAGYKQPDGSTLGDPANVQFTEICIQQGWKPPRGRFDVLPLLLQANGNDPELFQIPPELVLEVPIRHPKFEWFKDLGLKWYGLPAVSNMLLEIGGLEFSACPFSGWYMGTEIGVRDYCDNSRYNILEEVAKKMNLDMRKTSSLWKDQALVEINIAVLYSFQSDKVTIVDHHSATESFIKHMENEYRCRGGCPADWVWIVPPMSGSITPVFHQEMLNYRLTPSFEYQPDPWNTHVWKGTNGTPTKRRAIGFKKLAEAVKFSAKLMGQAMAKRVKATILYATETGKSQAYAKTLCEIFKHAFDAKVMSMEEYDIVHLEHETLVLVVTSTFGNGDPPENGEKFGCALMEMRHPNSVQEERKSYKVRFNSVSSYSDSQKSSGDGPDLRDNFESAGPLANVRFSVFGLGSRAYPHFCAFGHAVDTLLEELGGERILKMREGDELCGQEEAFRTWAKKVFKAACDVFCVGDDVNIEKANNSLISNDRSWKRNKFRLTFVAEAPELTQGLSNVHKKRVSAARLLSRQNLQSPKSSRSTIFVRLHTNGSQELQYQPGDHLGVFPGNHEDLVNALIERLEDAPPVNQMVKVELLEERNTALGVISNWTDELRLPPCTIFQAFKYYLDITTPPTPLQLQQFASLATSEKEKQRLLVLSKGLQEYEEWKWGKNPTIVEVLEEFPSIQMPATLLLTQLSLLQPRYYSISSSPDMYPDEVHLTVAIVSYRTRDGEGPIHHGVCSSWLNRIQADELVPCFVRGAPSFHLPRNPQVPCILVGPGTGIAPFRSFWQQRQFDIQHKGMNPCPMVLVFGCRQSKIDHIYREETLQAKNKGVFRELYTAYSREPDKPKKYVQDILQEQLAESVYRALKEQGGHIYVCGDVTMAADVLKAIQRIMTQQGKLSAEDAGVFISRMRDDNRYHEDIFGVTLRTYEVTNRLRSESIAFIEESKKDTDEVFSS
Sequence of Nitric oxide sythases; iNOS & nNOS (Homo sapiens) (P35228 whole entry, looked up): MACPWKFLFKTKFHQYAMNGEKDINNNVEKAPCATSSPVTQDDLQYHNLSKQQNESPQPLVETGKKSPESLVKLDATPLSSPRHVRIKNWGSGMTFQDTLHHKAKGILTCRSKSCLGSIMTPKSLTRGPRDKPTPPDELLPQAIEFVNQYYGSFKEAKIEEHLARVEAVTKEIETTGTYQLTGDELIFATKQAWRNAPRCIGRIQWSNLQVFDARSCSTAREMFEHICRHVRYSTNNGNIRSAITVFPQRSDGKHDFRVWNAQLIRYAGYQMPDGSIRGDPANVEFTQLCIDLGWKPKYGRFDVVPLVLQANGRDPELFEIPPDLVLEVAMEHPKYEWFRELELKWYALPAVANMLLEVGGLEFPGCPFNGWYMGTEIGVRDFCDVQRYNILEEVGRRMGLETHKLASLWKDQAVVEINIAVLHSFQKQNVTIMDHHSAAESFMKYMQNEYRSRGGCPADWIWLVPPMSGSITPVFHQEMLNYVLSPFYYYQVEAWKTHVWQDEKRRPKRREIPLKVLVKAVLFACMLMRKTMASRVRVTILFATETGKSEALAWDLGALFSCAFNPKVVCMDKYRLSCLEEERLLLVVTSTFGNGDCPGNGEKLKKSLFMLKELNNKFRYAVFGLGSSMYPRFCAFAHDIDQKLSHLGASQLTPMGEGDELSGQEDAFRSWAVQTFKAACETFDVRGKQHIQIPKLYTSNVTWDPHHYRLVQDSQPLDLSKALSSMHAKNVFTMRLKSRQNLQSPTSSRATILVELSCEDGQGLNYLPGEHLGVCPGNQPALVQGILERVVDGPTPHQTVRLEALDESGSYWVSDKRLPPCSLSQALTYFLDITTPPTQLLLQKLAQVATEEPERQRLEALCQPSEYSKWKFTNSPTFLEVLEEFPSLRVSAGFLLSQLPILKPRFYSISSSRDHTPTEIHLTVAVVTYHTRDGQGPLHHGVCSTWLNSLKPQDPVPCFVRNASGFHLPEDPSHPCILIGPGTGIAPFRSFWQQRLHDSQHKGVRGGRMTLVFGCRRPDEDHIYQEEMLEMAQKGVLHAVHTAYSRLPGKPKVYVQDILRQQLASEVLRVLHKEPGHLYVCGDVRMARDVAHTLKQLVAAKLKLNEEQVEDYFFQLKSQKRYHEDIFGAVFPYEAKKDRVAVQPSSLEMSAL

[3] = biological target: Nitric oxide synthase 1 (Homo sapiens, UniProt P29475); experiment: Inhibition of recombinant human nNOS expressed in baculovirus infected insect Sf9 cells assessed as conversion of [3H]-L-arginine into [3H]-L-citrulline by radiometric method
Sequence of Nitric oxide synthase 1 (P29475 whole entry): as the sequence (P29475 whole entry, looked up) above

[4] = biological target: T1, Nitric oxide synthase 3 (Homo sapiens, UniProt P29474); experiment: Inhibition of recombinant human eNOS expressed in baculovirus infected insect Sf9 cells assessed as conversion of [3H]-L-arginine into [3H]-L-citrulline by radiometric method
T1 sequence (P29474 whole entry): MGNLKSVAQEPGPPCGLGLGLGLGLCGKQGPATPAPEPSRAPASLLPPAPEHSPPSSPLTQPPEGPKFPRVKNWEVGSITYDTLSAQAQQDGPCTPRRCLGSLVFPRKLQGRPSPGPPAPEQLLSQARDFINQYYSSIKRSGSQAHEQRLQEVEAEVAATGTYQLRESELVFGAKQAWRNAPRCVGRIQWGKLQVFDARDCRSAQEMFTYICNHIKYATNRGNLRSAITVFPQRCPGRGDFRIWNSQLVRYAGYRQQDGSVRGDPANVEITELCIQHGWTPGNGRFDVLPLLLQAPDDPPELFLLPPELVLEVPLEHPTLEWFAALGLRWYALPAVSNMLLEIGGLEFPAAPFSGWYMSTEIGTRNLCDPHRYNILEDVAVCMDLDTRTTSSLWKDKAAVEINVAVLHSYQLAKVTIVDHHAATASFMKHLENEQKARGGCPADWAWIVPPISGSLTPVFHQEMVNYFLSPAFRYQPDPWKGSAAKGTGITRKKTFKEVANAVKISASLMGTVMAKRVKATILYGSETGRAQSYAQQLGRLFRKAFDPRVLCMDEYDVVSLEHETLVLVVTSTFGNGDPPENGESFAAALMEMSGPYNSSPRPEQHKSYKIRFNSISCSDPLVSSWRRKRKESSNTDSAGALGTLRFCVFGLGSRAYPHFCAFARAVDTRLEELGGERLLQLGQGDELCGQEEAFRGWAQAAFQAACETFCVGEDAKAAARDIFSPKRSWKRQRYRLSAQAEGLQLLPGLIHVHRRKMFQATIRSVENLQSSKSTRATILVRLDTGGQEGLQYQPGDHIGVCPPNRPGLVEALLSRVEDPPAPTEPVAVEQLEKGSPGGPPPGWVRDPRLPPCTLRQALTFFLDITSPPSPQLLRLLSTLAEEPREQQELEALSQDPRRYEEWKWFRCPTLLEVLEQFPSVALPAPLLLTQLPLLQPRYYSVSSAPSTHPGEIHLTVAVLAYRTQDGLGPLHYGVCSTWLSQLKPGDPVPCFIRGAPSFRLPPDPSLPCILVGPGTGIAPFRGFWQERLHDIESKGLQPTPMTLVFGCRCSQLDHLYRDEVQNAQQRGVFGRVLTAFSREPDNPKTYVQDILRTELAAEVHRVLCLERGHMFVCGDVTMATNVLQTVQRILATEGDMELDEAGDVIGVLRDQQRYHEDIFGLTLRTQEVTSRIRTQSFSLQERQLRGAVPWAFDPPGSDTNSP

[5] = biological target: Nitric oxide synthase, inducible (Homo sapiens, UniProt P35228); experiment: Inhibition of recombinant human iNOS expressed in baculovirus infected insect Sf9 cells assessed as conversion of [3H]-L-arginine into [3H]-L-citrulline by radiometric method
Sequence of Nitric oxide synthase, inducible (P35228 whole entry): as the sequence (P35228 whole entry, looked up) above

[6] = tested on: Rattus norvegicus; experiment: Antiallodynic activity in Sprague-Dawley rat model of migraine pain assessed as attenuation of cutaneous allodynia in the hind-paws at 30 mg/kg, po administered 15 mins prior to application of inflammatory soup measured at 4 hrs; type: functional, organism-based; set-up: dose 30 mg/kg
[7] = tested on: Rattus norvegicus; experiment: Antiallodynic activity in Sprague-Dawley rat model of migraine pain assessed as attenuation of cutaneous allodynia in the hind-paws at 30 mg/kg, po administered 15 mins prior to application of inflammatory soup measured between 2 to 6 hrs; type: functional, organism-based; set-up: dose 30 mg/kg

Structure (SMILES)	Ratio IC50 [1]	Ratio IC50 [2]	IC50 [4]	IC50 [5]	other results
CN(C)CCn1ccc2ccc(N=C(N)c3cccs3)cc21	–	–	–	60 µM	–
CN1CCCC(n2ccc3ccc(NC(=N)c4ccco4)cc32)CC1 (stereo not drawn)	59	2	30.6 µM	1.2 µM	IC50 [3]: 0.52 µM
N/C(=N\c1ccc2ccn(CCCCn3ccnc3)c2c1)c1cccs1	19	–	–	–	–
N/C(=N\c1ccc2ccn(CCCN3CCOCC3)c2c1)c1ccsc1	12.1	50	–	–	–
CN1CCC[C@H]1CCn1ccc2ccc(/N=C(\N)c3cccs3)cc21	120	360	–	72 µM	–
CCN(CC)CCCn1ccc2ccc(NC(=N)c3cccs3)cc21	–	–	–	–	IC50 [3]: 0.15 µM
CN1CCCC1CCn1ccc2ccc(/N=C(\N)c3cccs3)cc21 (racemic)	86	309	–	–	–
CN1CCC[C@@H]1CCn1ccc2ccc(/N=C(\N)c3cccs3)cc21	50	225	–	72 µM	Activity [6]: Active; Activity [7]: Active
CN1CCCC(n2ccc3ccc(/N=C(\N)c4cccs4)cc32)CC1 (stereo not drawn)	43	–	–	–	–
CCN(CC)CCCn1ccc2ccc(/N=C(\N)c3cccs3)cc21	68	–	–	–	–
CN(C)CCCCn1ccc2ccc(/N=C(\N)c3cccs3)cc21	10	254	–	–	–
N/C(=N\c1ccc2ccn(CCCN3CCOCC3)c2c1)c1ccco1	14	15	–	–	–
N/C(=N\c1ccc2ccn(CCCN3CCOCC3)c2c1)c1ccoc1	19	–	–	–	–
CNCCCn1ccc2ccc(/N=C(\N)c3cccs3)cc21	6	–	–	–	–

Second part, led by results:

Ratio IC50 [1]	Ratio IC50 [2]	IC50 [4]	IC50 [5]	Structure (SMILES)	other results
40	117	–	–	N/C(=N\c1ccc2ccn(CCCN3CCOCC3)c2c1)c1cccs1	–
–	–	11.2 µM	–	N=C(Nc1ccc2ccn(CCCN3CCCC3)c2c1)c1cccs1	IC50 [3]: 0.45 µM
–	–	23.3 µM	–	CN(C)CCCn1ccc2ccc(NC(=N)c3cccs3)cc21	–
–	–	37.7 µM	–	CN1CCCC(n2ccc3ccc(NC(=N)c4cccs4)cc32)CC1 (stereo not drawn)	–
–	–	–	> 100 µM	N=C(Nc1ccc2ccn(CCCN3CCOCC3)c2c1)c1ccoc1	–
–	–	23 µM	> 100 µM	N=C(Nc1ccc2ccn(CCCCn3ccnc3)c2c1)c1cccs1	–
25	–	–	–	N/C(=N\c1ccc2ccn(CCCN3CCCC3)c2c1)c1cccs1	–
–	–	11.8 µM	–	CNCCCn1ccc2ccc(NC(=N)c3cccs3)cc21	–
–	–	–	21 µM	N=C(Nc1ccc2ccn(CCN3CCCCC3)c2c1)c1cccs1	–
–	–	19 µM	68 µM	CN1CCCC1CCn1ccc2ccc(NC(=N)c3cccs3)cc21 (racemic)	IC50 [3]: 0.22 µM
–	–	28.3 µM	82 µM	N=C(Nc1ccc2ccn(CCCN3CCOCC3)c2c1)c1cccs1	IC50 [3]: 0.7 µM
8	43	–	–	N/C(=N\c1ccc2ccn(CCN3CCCCC3)c2c1)c1cccs1	–
–	–	2.53 µM	66 µM	CN(C)CCCCn1ccc2ccc(NC(=N)c3cccs3)cc21	IC50 [3]: 0.26 µM
–	–	–	36 µM	N=C(Nc1ccc2ccn(CCCN3CCOCC3)c2c1)c1ccco1	–
–	–	–	70 µM	N=C(Nc1ccc2ccn(CCCN3CCOCC3)c2c1)c1ccsc1	–
